# Experimental data as given in US6110933A, “Amino acid derivatives and their use as phospholipase A2 inhibitor” (Fujisawa Pharmaceutical Co., Ltd., priority 1994, dated 2000).
# How the values were obtained:
# [1] = tested on: PLA2 group I; assay: Test on the inhibitory effect against phospholipase A2 (PLA2); type: biochemical; conditions: 83 ng/ml; PLA2 group I from porcine pancreas; preincubated with enzyme at 37° C. for 30 minutes; 5 μM [14C]phosphatidylcholine, pH 7.4
# Description: Test on the inhibitory effect against phospholipase A2 (PLA2)
# The substrate, [^14 C]phosphatidylcholine (L-3-phosphatidylcholine, 1-stearyl-2-[1-^14 C]arachidonyl, was dried under N2 gas and suspended in deionized water with a probe sonicater. The standard reaction mixture in a total volume of 800 μl contained Tris-HCl buffer (10 mM, pH 7.4), CaCl2 (5 mM) and 10 ng/ml enzyme, PLA2 group I (from porcine pancreas, 700 units/mg, Boehringer Mannheim Yamanouchi Co., Ltd.). The reaction was started by addition of 5 μM [^14 C]phosphatidylcholine (L-3-phosphatidylcholine, 1-stearyl-2-[1-^14 C]arachidonyl to the enzyme solution. Following incubation at 37° C. for 30 minutes, the reaction was terminated by addition of 2 ml of Dole's reagent^1). To determine the release of ^14 C-arachidonic acid from the phospholipid substrate, free fatty acid was extracted by the method of Natori et al^2), and counted in 8 ml of Liquifluor (Du Pont, New England Nuclear). On the inhibition assay, inhibitor or vehicle was preincubated with enzyme at 37° C. for 30 minutes. Each sample was dissolved in methanol (1.25% final). All data are the average of at least duplicate determinations corrected for none enzymatic hydrolysis. Data were expressed as percent inhibition.
# [2] = tested on: PLA2 group II; assay: Inhibition of PLA2 group II; type: biochemical; conditions: no concentration or figure given
compound,measurement,setting,value
"CCCCCCCCCCCCC[C@@H](CC(N)=O)OC(=O)[C@H](CCCC(=O)O)NC(=O)c1ccc(OC)cc1 [Example 9, (3S)-3-[(2S)-5-Carboxy-2-(p-methoxybenzoylamino)-pentanoyl]oxyhexadecanamide]",Percent inhibition,[1],87.1%
same,inhibition of PLA2 group II,[2],inhibited
